This passage reports Ki, EC50 and inhibition results from patent US12195439B1, “C1-substituted isopropylamine fused heterocyclic mescaline derivatives” (Enveric Biosciences Canada Inc., priority 2022, dated 2025).

Molecules are shown by their SMILES.

The target of assay [1] is T1, 5-HT1A receptor (Homo sapiens, UniProt P08908).
T1 construct: purchased Perkin Elmer 6110501400UA
T1 sequence (P08908 1-422): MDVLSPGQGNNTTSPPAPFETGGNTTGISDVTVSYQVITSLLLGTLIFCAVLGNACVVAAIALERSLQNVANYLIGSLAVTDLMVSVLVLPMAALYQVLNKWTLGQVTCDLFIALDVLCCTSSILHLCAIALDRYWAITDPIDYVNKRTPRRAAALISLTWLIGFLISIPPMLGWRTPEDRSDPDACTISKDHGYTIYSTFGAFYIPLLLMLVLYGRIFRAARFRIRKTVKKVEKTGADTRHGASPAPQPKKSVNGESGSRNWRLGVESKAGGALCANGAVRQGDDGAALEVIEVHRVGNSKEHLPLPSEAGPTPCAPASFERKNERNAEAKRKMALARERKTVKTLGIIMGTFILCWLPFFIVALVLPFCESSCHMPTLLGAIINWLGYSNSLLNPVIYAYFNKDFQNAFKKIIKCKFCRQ
Description: 5-HT1A receptor radioligand competition assay (SPA). The following applies: 5-HT1A, Ki, competition with 0.5 nM [3H]8-hydroxy-DPAT, membranes containing 5-HT1A. In kind it is binding. (Loss of bound radioactivity is the signal in a displacement assay; it reports binding, not function.)

The target of assay [2] is T2, 5-HT2A receptor (Homo sapiens, UniProt P28223).
T2 construct: purchased PerkinElmer ES-313-M400UA
Nature of the assay: biochemical. Format: binding. The conditions noted are these: competition with 1 nM [3H]ketanserin, membranes containing 5-HT2A, SPA.

Assay [3] deals with T1, 5-HT1A receptor. Nature of the assay: 5-HT1A receptor functional cellular response (cAMP) assay. In kind it is cell-based.
Assay [4] deals with T1, 5-HT1A receptor. Description: Eurofins Cerep competition binding assay at 5-HT1A receptor. The following applies: 10 μM test ligand, [3H]8-OH-DPAT, recombinant receptor from HEK-293 cells; read-out: HT1A, percent of control-specific binding.
The target of assay [5] is T3, 5-HT2B receptor (Homo sapiens, UniProt P41595).
T3 construct: host or cells: CHO cells (membrane preparation)
Nature of the assay: Eurofins Cerep competition binding assay at 5-HT2B receptor. The conditions noted are these: 10 μM test ligand, [3H]mesulergine, recombinant receptor from CHO cells; read-out: HT2B, percent of control-specific binding.

The target in assay [6] is T4, 5-HT2C receptor (Homo sapiens, UniProt P28335).
T4 construct: host or cells: HEK-293 cells (membrane preparation)
T4 sequence (P28335 33-458): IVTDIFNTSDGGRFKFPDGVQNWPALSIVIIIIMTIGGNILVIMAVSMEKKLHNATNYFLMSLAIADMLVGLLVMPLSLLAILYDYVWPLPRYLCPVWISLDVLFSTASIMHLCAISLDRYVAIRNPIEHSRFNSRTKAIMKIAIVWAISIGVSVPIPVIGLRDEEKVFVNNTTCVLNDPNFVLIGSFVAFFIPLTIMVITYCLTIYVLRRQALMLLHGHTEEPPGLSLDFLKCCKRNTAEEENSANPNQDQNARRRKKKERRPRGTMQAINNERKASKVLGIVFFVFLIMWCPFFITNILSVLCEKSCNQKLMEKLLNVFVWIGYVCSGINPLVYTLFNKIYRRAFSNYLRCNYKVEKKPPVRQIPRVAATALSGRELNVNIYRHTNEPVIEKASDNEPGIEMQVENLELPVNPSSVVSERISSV
Description: Eurofins Cerep competition binding assay at 5-HT2C receptor. The following applies: 10 μM test ligand, [125I](±)DOI, recombinant receptor from HEK-293 cells; read-out: HT2C, percent of control-specific binding.

Assay [7] deals with T5, 5-HT7 receptor (Homo sapiens, UniProt P34969).
T5 construct: host or cells: HEK-293 cells (membrane preparation)
Description: Eurofins Cerep competition binding assay at 5-HT7 receptor. The following applies: 10 μM test ligand, [3H]LSD, recombinant receptor from HEK-293 cells; read-out: HT7, percent of control-specific binding.

Assay [8] addresses T6, alpha2A receptor (Homo sapiens, UniProt P08913).
T6 construct: host or cells: CHO cells (membrane preparation)
T6 sequence (P08913 1-465): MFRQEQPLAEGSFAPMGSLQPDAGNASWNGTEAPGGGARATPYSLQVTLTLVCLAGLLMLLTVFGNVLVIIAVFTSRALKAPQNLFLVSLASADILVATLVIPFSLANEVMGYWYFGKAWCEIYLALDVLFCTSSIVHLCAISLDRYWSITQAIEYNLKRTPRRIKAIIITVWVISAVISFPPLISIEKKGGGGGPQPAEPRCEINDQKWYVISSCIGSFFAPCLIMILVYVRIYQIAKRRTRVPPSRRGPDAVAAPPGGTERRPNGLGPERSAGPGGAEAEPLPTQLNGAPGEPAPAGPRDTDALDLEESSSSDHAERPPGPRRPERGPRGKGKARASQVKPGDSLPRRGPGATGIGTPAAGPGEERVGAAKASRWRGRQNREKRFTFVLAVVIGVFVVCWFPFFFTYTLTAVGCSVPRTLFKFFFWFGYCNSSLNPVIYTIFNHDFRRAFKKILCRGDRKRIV
Nature of the assay: Eurofins Cerep competition binding assay at alpha2A receptor. The conditions noted are these: 10 μM test ligand, [3H]RX 821002, recombinant receptor from CHO cells; read-out: α-2A, percent of control-specific binding.

Assay [9] addresses T7, serotonin transporter (SERT) (Homo sapiens, UniProt P31645).
T7 construct: host or cells: CHO cells (membrane preparation)
Description: biochemical. Format: binding. The conditions noted are these: read-out: SERT, percent of control-specific binding.

The target in assay [10] is T8, dopamine transporter (DAT) (Homo sapiens, UniProt Q01959).
T8 construct: host or cells: CHO cells (membrane preparation)
Description: Eurofins Cerep competition binding assay at dopamine transporter. The conditions noted are these: read-out: DAT, percent of control-specific binding, 10 μM test ligand, [3H]BTCP, recombinant transporter from CHO cells.

In assay [11] the target is T9, MT1 receptor (Homo sapiens, UniProt P48039).
T9 construct: host or cells: CHO cells (membrane preparation)
Nature of the assay: Eurofins Cerep competition binding assay at MT1 receptor. The following applies: read-out: MT1, percent of control-specific binding, 10 μM test ligand, [125I]2-iodomelatonin, recombinant receptor from CHO cells.

The target in assay [12] is T10, norepinephrine transporter (NET) (Homo sapiens, UniProt P23975).
T10 construct: host or cells: CHO cells (membrane preparation)
Nature of the assay: Eurofins Cerep competition binding assay at norepinephrine transporter. The conditions noted are these: read-out: NET, percent of control-specific binding, 10 μM test ligand, [3H]nisoxetine, recombinant transporter from CHO cells.

T5 sequence (P34969 whole entry): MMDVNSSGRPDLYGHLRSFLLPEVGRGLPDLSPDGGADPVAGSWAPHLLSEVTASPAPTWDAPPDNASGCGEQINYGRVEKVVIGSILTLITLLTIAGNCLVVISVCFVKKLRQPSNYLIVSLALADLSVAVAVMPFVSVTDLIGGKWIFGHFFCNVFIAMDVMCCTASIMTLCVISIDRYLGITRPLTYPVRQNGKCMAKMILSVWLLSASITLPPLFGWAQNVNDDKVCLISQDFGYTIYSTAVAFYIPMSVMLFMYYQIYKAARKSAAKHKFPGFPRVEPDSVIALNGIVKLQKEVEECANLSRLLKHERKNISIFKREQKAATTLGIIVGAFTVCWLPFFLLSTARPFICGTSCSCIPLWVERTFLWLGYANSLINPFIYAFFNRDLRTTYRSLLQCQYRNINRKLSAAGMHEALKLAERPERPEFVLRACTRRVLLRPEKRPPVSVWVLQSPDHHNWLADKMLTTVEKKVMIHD
T8 sequence (Q01959 whole entry): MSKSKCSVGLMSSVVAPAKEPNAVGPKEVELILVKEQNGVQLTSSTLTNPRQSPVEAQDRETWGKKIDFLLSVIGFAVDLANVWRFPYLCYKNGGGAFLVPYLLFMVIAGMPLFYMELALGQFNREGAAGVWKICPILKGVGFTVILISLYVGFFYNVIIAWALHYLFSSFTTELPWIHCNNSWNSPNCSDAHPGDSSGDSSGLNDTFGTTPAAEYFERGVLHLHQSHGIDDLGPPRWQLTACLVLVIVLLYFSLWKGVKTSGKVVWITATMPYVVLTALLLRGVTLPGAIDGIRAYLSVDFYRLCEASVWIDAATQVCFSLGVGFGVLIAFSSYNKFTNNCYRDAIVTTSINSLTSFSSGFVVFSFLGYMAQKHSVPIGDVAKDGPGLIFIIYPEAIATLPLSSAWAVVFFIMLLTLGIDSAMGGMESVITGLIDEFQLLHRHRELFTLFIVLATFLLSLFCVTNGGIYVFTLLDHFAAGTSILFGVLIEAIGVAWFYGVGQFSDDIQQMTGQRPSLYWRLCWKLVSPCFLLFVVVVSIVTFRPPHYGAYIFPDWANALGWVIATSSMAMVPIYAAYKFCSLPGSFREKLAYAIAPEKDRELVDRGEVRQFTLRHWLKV
T2 sequence (P28223 whole entry): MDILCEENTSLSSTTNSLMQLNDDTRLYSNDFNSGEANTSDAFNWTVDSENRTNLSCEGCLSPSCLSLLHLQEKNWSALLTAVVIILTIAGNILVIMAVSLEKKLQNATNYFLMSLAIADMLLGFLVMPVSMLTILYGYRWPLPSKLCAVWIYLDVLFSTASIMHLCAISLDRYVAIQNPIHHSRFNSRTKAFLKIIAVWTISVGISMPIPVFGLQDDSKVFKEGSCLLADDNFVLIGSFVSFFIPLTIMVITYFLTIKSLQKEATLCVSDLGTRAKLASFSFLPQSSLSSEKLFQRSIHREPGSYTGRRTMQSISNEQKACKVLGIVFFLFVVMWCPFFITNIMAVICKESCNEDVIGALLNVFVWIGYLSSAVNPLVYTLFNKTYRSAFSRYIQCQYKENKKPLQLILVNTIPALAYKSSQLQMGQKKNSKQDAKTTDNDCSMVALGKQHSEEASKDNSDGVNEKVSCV
T7 sequence (P31645 whole entry): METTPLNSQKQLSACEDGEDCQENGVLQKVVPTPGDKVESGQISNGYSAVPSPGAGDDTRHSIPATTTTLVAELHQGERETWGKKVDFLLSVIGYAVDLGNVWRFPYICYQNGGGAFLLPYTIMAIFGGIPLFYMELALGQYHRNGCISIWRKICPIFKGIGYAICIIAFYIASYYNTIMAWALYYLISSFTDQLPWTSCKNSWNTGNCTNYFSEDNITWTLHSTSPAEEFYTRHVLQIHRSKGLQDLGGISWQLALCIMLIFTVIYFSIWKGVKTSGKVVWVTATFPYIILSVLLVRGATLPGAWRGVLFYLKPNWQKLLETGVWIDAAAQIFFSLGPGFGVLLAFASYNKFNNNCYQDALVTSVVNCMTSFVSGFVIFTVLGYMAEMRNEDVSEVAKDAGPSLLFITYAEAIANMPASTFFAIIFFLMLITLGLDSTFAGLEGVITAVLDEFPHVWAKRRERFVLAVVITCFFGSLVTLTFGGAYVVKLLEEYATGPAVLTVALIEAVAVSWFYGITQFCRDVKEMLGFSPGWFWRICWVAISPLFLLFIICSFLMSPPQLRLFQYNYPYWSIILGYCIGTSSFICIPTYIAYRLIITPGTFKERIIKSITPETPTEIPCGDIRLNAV
T9 sequence (P48039 whole entry): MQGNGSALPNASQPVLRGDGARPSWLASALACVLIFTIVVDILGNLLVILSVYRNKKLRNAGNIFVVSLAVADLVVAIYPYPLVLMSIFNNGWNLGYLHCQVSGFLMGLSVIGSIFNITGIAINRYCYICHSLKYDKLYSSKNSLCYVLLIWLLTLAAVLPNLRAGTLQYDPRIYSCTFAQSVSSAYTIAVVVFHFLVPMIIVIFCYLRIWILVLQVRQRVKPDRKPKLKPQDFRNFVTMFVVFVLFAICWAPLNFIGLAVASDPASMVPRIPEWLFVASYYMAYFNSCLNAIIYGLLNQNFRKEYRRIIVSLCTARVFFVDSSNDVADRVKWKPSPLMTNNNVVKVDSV
T3 sequence (P41595 whole entry): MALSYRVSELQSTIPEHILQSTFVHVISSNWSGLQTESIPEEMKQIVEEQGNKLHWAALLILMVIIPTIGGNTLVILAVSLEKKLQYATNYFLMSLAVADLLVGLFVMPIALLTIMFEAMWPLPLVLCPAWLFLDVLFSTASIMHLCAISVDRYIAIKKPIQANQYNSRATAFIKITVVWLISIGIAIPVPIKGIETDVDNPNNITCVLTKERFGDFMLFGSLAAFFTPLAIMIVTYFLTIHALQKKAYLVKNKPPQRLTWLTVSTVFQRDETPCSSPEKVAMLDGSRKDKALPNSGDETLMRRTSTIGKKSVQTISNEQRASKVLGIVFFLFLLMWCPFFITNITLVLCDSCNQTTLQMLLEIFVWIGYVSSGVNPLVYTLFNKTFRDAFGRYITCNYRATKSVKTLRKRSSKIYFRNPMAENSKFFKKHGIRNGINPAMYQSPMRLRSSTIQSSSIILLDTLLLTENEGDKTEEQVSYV
T10 sequence (P23975 whole entry): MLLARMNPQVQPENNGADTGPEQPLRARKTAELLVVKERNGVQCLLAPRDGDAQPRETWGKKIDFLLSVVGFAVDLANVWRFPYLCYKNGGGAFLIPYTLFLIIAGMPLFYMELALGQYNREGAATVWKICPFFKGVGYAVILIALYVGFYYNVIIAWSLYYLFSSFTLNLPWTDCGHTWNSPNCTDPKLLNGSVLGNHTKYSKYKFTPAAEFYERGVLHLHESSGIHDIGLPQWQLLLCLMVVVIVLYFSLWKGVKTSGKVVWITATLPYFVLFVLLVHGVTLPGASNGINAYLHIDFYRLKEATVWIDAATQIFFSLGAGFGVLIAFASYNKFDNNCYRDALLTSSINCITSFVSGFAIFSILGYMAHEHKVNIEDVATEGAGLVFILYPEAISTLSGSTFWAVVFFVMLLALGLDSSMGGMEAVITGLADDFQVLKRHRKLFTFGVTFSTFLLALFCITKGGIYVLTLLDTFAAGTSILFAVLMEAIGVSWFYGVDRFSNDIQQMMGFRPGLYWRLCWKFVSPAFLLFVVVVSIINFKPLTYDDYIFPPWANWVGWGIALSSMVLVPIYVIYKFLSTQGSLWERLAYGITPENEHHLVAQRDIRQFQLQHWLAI

As for `CC(C(=O)c1ccc2c(c1)OCO2)N(C)Cc1ccccc1` (racemic) [A(III)], the Ki in [1] came out at 49 µM; in assay [2], 53 µM. The EC50 in assay [3] was > 1000 µM. Besides, the inhibition at 10 µM in [4] is 4%; in assay [5], 32%; in assay [6], 7%; in assay [7], 0%; in assay [8], 42%; in assay [9], 5%. The inhibition at 10 µM was found to be 74% in [10], 77% in assay [11] and 38% in [12].
Take `N[C@@H](Cc1c[nH]c2ccccc12)C(=O)O` [tryptophan]: the Ki in assay [1] and in assay [2] was > 1000 µM each time. For the same compound, the inhibition at 10 µM was 6% in [4]; 0% in assay [5]; 25% in assay [6]; 11% in assay [7]; -4% in [8]; 1% in [9]. In addition, the figures for the inhibition at 10 µM in assay [10], in assay [11] and in assay [12] were 1%, -2% and 1%, respectively.

In general, Ki refers to the equilibrium dissociation constant of an inhibitor or competing ligand from its target. A low value points to a stronger hold on the target. The EC50 is the concentration needed to bring the measured effect to its halfway point.
